Test results from ChEMBL document CHEMBL3596180, “Evaluation of histone deacetylase inhibitors (HDACi) as therapeutic leads for human African trypanosomiasis (HAT)” (Bioorg Med Chem, 2015).
One block for each compound: values may come before it. Active and inactive are the calls of the source. The rule behind the calls is not given here.

Columns and labels:
Histone deacetylase 1 = Histone deacetylase 1 (Homo sapiens, UniProt Q13547); assay: Inhibition of human HDAC1
Histone deacetylase 4 = Histone deacetylase 4 (Homo sapiens, UniProt P56524); assay: Inhibition of human HDAC4
Histone deacetylase 4, sequence (P56524 whole entry): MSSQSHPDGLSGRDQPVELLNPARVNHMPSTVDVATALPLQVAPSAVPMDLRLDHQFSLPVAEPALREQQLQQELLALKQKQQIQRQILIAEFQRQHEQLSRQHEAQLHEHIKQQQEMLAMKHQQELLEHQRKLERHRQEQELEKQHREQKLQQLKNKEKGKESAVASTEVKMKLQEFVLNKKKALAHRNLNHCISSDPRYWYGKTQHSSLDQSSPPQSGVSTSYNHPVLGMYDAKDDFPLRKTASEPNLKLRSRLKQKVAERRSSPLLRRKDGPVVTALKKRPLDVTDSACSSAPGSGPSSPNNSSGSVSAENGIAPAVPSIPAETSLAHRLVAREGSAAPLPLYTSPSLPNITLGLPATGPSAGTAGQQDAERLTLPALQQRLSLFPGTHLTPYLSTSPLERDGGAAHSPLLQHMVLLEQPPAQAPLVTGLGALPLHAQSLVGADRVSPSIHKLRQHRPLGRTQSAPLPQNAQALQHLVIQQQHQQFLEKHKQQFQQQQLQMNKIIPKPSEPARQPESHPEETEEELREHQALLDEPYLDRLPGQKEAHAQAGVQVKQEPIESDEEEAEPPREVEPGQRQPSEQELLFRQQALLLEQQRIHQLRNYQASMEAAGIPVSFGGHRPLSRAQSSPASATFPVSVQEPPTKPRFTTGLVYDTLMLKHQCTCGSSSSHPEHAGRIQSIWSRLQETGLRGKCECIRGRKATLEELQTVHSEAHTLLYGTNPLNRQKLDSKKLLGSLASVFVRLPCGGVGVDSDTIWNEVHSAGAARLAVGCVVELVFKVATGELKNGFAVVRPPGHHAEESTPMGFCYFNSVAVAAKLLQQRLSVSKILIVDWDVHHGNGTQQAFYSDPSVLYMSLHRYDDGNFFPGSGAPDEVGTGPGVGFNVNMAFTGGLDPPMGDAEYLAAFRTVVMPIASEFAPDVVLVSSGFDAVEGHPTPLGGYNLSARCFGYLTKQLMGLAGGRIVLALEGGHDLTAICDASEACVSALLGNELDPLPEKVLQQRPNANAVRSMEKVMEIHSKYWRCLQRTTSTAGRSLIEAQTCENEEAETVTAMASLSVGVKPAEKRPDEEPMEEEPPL

[1] = target: T1, Protein deacetylase HDAC6 (Homo sapiens, UniProt Q9UBN7); assay: Inhibition of human HDAC6
T1 sequence (Q9UBN7 whole entry): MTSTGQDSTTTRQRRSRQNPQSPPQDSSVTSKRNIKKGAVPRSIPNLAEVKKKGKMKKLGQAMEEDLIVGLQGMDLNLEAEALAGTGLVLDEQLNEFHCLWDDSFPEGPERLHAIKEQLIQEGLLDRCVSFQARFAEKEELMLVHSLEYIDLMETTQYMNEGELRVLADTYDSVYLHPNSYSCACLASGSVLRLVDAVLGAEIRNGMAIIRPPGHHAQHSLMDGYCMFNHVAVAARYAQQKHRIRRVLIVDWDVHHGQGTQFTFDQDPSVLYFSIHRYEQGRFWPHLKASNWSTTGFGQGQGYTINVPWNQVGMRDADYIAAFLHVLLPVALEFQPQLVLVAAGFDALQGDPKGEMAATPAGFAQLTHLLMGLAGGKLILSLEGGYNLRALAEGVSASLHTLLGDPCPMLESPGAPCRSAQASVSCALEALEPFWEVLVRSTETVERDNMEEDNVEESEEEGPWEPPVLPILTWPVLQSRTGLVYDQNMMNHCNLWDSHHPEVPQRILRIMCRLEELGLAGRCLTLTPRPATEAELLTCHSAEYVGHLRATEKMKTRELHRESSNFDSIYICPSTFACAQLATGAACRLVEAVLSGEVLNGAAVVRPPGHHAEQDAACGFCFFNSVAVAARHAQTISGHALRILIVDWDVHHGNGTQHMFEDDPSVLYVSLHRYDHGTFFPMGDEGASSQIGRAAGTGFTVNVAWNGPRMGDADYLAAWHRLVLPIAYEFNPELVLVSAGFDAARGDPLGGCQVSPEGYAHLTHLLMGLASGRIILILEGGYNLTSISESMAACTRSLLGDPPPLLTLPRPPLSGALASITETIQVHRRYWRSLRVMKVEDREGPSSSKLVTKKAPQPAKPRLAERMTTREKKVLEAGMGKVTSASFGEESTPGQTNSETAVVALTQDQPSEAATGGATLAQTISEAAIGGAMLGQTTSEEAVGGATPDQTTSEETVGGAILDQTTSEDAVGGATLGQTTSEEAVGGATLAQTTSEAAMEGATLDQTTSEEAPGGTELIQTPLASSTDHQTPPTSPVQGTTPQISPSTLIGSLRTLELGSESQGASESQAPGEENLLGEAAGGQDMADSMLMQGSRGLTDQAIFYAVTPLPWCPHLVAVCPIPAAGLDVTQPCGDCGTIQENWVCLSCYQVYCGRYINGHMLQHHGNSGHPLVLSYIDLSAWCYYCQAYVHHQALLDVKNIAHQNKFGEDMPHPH

Histone deacetylase 3 = Histone deacetylase 3 (Homo sapiens, UniProt O15379); assay: Inhibition of human HDAC3
Histone deacetylase 3, sequence (O15379 whole entry): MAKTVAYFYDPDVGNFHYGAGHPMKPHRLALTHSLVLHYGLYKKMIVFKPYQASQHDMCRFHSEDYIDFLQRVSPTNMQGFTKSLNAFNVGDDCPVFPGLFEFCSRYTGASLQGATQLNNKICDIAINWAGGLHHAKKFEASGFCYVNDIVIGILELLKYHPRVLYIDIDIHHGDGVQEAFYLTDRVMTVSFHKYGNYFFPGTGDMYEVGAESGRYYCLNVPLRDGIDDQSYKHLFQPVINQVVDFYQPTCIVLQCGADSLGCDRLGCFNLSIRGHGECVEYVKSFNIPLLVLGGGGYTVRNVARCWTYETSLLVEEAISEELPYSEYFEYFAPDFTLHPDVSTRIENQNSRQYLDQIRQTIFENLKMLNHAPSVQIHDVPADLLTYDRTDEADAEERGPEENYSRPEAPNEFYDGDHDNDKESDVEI

[2] = AUC in po dosed human measured under phase 1 trial; type: ADME, organism-based; conditions: in vivo
[3] = Tmax in po dosed human measured under phase 1 trial; type: ADME, organism-based; conditions: in vivo
[4] = Half-life in po dosed human measured under phase 1 trial; type: ADME, organism-based; conditions: in vivo
[5] = Cmax in po dosed human measured under phase 1 trial; type: ADME, organism-based; set-up: route oral; conditions: in vivo
[6] = test system: Trypanosoma brucei brucei; assay: Antitrypanosomal activity against Trypanosoma brucei brucei 427 assessed as inhibition of parasite proliferation measured as ATP levels after 48 hrs by luciferase-based assay; type: functional, organism-based; conditions: Trypanosoma brucei, 427, 48 h
[7] = Tmax in iv dosed human measured under phase 1 trial; type: ADME, organism-based; conditions: in vivo
[8] = Tmax in iv dosed human measured under phase 1/2 trial; type: ADME, organism-based; conditions: in vivo
[9] = Half-life in iv dosed human measured under phase 1/2 trial; type: ADME, organism-based; conditions: in vivo
[10] = test system: Trypanosoma brucei brucei; assay: Trypanocidal activity against Trypanosoma brucei brucei assessed as killing of parasite densities of 10^4 to 10^6 cells/ml at 180 uM after 4 hrs by clonal dilution method; type: functional, organism-based
[11] = AUC in iv dosed human measured under phase 1 trial; type: ADME, organism-based; conditions: in vivo
[12] = Cmax in iv dosed human measured under phase 1 trial; type: ADME, organism-based; set-up: route intravenous; conditions: in vivo
[13] = test system: Trypanosoma brucei brucei; assay: Trypanocidal activity against Trypanosoma brucei brucei assessed as killing of parasite densities of 10^4 to 10^6 cells/ml at 2 uM after […] by clonal dilution method; type: functional, organism-based
[14] = AUC in iv dosed human measured under phase 1/2 trial; type: ADME, organism-based; conditions: in vivo
[15] = Cmax in iv dosed human measured under phase 1/2 trial; type: ADME, organism-based; set-up: route intravenous; conditions: in vivo
[16] = Half-life in iv dosed human measured under phase 1 trial; type: ADME, organism-based; conditions: in vivo

Histone deacetylase 1, sequence (Q13547 whole entry): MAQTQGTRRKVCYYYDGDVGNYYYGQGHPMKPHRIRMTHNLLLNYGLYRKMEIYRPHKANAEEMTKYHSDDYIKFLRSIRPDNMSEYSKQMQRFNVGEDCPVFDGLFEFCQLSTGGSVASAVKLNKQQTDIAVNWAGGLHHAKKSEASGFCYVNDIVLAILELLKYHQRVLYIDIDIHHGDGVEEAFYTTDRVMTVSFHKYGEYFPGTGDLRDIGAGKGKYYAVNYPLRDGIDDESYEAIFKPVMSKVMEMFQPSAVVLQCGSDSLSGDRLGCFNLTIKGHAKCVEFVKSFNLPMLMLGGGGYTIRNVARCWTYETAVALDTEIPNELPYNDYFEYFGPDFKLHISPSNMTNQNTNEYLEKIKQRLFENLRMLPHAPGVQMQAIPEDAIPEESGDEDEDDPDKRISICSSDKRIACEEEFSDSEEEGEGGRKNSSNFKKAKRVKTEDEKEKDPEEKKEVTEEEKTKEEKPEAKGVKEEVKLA

SMILES: O=C(/C=C/C#Cc1cccc(NS(=O)(=O)c2ccccc2)c1)NO [OXAMFLATIN]
Ki (Histone deacetylase 1): 0.0013 µM
Ki (Histone deacetylase 4): 2.03 µM
Ki [1]: 0.136 µM
Ki (Histone deacetylase 3): 0.0027 µM

SMILES: O=C(/C=C/c1cccc(S(=O)(=O)Nc2ccccc2)c1)NO [BELINOSTAT]
AUC [2]: 2700 ng·h/mL
Tmax [7]: 0 h
Tmax [3]: 1.9 h
Tmax [8]: 0.45 h
half-life [9]: 3.49 h
Activity [10]: inactive
half-life [4]: 1.5 h
Cmax [5]: 2140 nM
AUC [11]: 9990 ng·h/mL
EC50 [6]: 2.15 µM
EC90 [6]: 4.01 µM
Cmax [12]: 101000 nM
Activity [13]: inactive
AUC [14]: 47500 ng·h/mL
Cmax [15]: 183000 nM
half-life [16]: 0.69 h

SMILES: O=C(/C=C/C#Cc1ccc(NS(=O)(=O)c2ccccc2)cc1)NO [OXAMFLATIN]
EC50 [6]: 4.06 µM

SMILES: O=C(/C=C\c1cccc(C(=O)NO)c1)NO
EC50 [6]: 7 µM

SMILES: O=C(/C=C/c1ccc(CN(CCO)CCc2c[nH]c3ccccc23)cc1)NO [DACINOSTAT]
Tmax [7]: 2 h
AUC [11]: 2310 ng·h/mL
EC50 [6]: 2.6 µM
Cmax [12]: 2170 nM
half-life [16]: 8.29 h

The remaining lines, values ahead:

AUC [2]: 671 ng·h/mL
Tmax [3]: 2.1 h
half-life [4]: 6 h
Cmax [5]: 208 nM
EC50 [6]: 10.9 µM
SMILES: CCN(CC)Cc1ccc2cc(COC(=O)Nc3ccc(C(=O)NO)cc3)ccc2c1 [GIVINOSTAT]

EC50 [6]: 8.61 µM
SMILES: CN(C)Cc1c(C(=O)NCCOc2ccc(C(=O)NO)cc2)oc2ccccc12 [ABEXINOSTAT]

EC50 [6]: 6.55 µM
SMILES: CC(C)(CCc1ccccc1)C(=O)Nc1ccc(C(=O)NO)cc1
